Test results taken from patent US11673897B2, “Compounds for the treatment of kinase-dependent disorders” (Exelixis, Inc., priority 2018, dated 2023).

Key:
Assay type in all cases: cell-based
[1] = biological target: AXL (Homo sapiens (Human), UniProt P30530); assay: AXL autophosphorylation ELISA in A-172 cells; settings: cellular, Gas6-stimulated, phospho-AXL ELISA
Method: A-172 glioblastoma cells (ATCC #CRL-1620) were seeded at 2.5×10^5 cells/well onto 24-well plates (Greiner #662165), in […] (Thermo Fisher #11995-040) containing 10% FBS (Thermo Fisher #26140-079), […] (Thermo Fisher #11140-050), […] (Thermo Fisher #35050-061), and 1% Penicillin Streptomycin (Thermo Fisher #15140-122). A-172 cells were incubated at 37° C., […] for 24 hand then starved for 24 h in serum-free medium. Test compounds were serially diluted to produce an 8-point dose curve in fresh serum-free medium to a final concentration of 0.3% DMSO (vehicle) and added to the cells and incubated for 1 h. Cells were then stimulated with 1 μg/mL recombinant human Gas6 (R&D Systems #885-GSB-500) for 15 min, washed with cold PBS, and immediately lysed with 150 μL of cold 1× lysis buffer [20 mM Tris, 137 mM sodium chloride, 2 mM EDTA, 10% glycerol, 1% NP-40 alternative, 1 mM activated sodium orthovanadate, 1 mM PefaBloc SC (Sigma-Aldrich #11429868001), protease/phosphatase inhibitor tablet (Thermo Fisher #A32959)]. Lysates were collected and 100 μL/well added into the human phospho-AXL DuoSet IC ELISA (R&D Systems #DYC2228-2). Assay was performed according to manufacturer's instructions and sample phospho-AXL concentrations were extrapolated using human phospho-AXL control (R&D Systems #841645) as a standard. Positive control wells (100% activity) contained Gas6-stimulated, DMSO-treated cell lysates. Negative control wells (0% activity) contained Gas6-stimulated, reference inhibitor-treated cell lysates. IC50 values were calculated by nonlinear regression analysis using a 4-parameter logistic curve fit in ActivityBase XE (IDBS).

[2] = biological target: Mer (Homo sapiens (Human), UniProt Q12866); assay: Mer autophosphorylation ELISA in transient transfected 293A cells; settings: cellular, MERTK-transfected 293A cells, phospho-Mer ELISA
Mer, sequence (Q12866 21-999): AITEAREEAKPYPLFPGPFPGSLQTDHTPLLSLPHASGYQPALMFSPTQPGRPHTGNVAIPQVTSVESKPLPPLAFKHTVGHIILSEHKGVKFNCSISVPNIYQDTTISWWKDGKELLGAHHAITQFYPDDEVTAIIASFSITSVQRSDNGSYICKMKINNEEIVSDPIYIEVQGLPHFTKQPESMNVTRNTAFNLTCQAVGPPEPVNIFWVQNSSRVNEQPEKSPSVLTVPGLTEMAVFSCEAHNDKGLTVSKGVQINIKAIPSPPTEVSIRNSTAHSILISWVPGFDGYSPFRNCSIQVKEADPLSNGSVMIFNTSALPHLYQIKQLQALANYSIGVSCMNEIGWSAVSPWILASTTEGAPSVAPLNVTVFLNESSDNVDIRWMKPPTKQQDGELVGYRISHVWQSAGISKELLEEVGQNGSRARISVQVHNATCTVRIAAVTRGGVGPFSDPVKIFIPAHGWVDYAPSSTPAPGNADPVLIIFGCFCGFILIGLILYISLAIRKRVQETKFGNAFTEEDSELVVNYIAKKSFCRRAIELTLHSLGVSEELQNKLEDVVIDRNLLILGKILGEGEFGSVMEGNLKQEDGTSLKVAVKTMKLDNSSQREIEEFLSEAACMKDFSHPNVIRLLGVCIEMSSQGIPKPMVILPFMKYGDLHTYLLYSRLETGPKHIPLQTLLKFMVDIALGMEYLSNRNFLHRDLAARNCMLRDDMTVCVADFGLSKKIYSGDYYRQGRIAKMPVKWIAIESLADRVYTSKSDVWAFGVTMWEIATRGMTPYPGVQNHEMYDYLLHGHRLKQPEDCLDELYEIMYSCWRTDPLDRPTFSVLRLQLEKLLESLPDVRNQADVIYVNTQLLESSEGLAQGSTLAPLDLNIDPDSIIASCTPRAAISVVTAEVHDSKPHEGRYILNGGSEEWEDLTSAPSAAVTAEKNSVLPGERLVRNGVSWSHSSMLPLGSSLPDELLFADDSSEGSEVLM
Method: 293A cells (Thermo Fisher #R70507) were seeded at 1.5×10^6 cells/well onto 100 mm dish (Greiner #664169), in DMEM (Thermo Fisher #11995-040) containing 10% FBS (Thermo Fisher #26140-079), 1% MEM NEAA (Thermo Fisher #11140-050), 1% GlutaMax (Thermo Fisher #35050-061), and 1% Penicillin Streptomycin (Thermo Fisher #15140-122). 293A cells were incubated at 37° C., 5% CO2 for 24 h and then transfected with 6 μg MERTK DNA (Genecopoeia #EX-Z8208-M02) using TransIT LT1 transfection reagent (Mirus-Bio #MIR2305). After 24 h incubation, the transfected 293A cells were seeded at 1×10^5 cells/well onto 96-well plates (Corning #3904) in DMEM growth medium overnight. Test compounds were serially diluted to produce an 8-point dose curve in fresh serum-free medium to a final concentration of 0.3% DMSO (vehicle) and added to the cells and incubated for 1 h. Cells were then immediately lysed with 150 μL of cold 1× lysis buffer [20 mM Tris, 137 mM sodium chloride, 2 mM EDTA, 10% glycerol, 1% NP-40 alternative, 1 mM activated sodium orthovanadate, 1 mM PefaBloc SC (Sigma-Aldrich #11429868001), protease/phosphatase inhibitor tablet (Thermo Fisher #A32959)]. Lysates were clarified by centrifugation and 50 μL/well added into the human phospho-Mer DuoSet IC ELISA (R&D Systems #DYC2579-2). Assay was performed according to manufacturer's instructions and sample phospho-Mer concentrations were extrapolated using human phospho-Mer control (R&D Systems #841793) as a standard. Positive control wells (100% activity) contained DMSO-treated cell lysates. Negative control wells (0% activity) contained reference inhibitor-treated cell lysates. IC50 values were calculated by nonlinear regression analysis using a 4-parameter logistic curve fit in ActivityBase XE (IDBS).

[3] = biological target: Met (Homo sapiens (Human), UniProt P08581); assay: Met autophosphorylation ELISA in PC-3 cells; settings: cellular, HGF-stimulated, phospho-Met ELISA, read-out: c-Met IC50
Met, sequence (P08581 25-1390): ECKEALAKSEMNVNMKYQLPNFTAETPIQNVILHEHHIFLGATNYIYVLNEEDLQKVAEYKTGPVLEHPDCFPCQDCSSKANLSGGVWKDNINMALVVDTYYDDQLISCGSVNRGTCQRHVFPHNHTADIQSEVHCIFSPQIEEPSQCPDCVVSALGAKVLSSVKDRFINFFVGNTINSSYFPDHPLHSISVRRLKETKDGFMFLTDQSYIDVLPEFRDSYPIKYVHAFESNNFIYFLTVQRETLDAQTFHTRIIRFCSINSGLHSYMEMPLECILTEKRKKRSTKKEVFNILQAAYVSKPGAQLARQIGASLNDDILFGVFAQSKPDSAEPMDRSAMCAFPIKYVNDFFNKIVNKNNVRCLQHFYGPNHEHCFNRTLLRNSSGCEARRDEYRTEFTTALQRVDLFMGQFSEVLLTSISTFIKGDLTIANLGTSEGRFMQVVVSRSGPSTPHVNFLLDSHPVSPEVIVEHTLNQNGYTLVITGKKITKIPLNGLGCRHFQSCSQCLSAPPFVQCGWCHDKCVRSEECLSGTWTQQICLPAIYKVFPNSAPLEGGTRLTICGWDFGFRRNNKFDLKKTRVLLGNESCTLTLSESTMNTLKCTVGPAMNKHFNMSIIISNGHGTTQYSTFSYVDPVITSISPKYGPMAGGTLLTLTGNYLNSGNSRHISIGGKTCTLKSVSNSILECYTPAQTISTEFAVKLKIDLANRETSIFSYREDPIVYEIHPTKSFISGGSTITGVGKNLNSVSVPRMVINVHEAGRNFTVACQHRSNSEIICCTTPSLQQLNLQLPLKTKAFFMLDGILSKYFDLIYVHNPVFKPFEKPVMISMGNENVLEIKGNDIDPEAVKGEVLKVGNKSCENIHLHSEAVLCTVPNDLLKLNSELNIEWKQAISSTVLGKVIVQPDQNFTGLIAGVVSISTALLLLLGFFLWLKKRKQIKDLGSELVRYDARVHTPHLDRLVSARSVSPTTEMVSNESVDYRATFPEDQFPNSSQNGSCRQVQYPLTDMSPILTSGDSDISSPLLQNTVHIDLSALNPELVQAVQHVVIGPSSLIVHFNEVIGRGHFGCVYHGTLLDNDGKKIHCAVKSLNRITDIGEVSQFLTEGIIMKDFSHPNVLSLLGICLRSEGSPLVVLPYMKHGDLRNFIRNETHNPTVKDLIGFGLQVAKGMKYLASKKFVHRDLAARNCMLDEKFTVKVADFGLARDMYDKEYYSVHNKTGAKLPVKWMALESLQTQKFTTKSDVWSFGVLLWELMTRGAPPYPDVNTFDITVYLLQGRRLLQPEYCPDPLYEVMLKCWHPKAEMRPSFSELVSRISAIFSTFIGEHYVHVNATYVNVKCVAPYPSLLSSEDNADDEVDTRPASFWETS
Method: PC-3 prostate cancer cells (ATCC #CRL-1435) were seeded at 4×10^4 cells/well onto 24-well plates (Greiner #662165), in DMEM (Thermo Fisher #11995-040) containing 10% FBS (Thermo Fisher #26140-079), 1% MEM NEAA (Thermo Fisher #11140-050), 1% GlutaMax (Thermo Fisher #35050-061), and 1% Penicillin Streptomycin (Thermo Fisher #15140-122). PC-3 cells were incubated at 37° C., 5% CO2 for 24 h and then starved for 3 h in serum-free medium. Test compounds were serially diluted to produce an 8-point dose curve in fresh serum-free medium to a final concentration of 0.3% DMSO (vehicle) and added to the cells and incubated for 1 h. Cells were then stimulated with 100 ng/mL recombinant human HGF (R&D Systems #294-HG-250) for 10 min, washed with cold PBS, and immediately lysed with 130 μL of cold 1× lysis buffer [20 mM Tris, 137 mM sodium chloride, 2 mM EDTA, 10% glycerol, 1% NP-40 alternative, 1 mM activated sodium orthovanadate, 1 mM PefaBloc SC (Sigma-Aldrich #11429868001), and protease/phosphatase inhibitor tablet (Thermo Fisher #A32959)]. Lysates were clarified by centrifugation and 100 μL/well added into the PathScan phospho-Met (panTyr) Sandwich ELISA (Cell Signaling Technology #7333). Assay was performed according to manufacturer's instructions. Positive control wells (100% activity) contained HGF-stimulated, DMSO-treated cell lysates. Negative control wells (0% activity) contained HGF-stimulated, reference inhibitor-treated cell lysates. IC50 values were calculated by nonlinear regression analysis using a 4-parameter logistic curve fit in ActivityBase XE (IDBS).

[4] = biological target: KDR (Homo sapiens (Human), UniProt P35968); assay: KDR autophosphorylation ELISA in HUVEC cells; settings: cellular, VEGF165-stimulated, phospho-KDR ELISA
KDR, sequence (P35968 20-1356): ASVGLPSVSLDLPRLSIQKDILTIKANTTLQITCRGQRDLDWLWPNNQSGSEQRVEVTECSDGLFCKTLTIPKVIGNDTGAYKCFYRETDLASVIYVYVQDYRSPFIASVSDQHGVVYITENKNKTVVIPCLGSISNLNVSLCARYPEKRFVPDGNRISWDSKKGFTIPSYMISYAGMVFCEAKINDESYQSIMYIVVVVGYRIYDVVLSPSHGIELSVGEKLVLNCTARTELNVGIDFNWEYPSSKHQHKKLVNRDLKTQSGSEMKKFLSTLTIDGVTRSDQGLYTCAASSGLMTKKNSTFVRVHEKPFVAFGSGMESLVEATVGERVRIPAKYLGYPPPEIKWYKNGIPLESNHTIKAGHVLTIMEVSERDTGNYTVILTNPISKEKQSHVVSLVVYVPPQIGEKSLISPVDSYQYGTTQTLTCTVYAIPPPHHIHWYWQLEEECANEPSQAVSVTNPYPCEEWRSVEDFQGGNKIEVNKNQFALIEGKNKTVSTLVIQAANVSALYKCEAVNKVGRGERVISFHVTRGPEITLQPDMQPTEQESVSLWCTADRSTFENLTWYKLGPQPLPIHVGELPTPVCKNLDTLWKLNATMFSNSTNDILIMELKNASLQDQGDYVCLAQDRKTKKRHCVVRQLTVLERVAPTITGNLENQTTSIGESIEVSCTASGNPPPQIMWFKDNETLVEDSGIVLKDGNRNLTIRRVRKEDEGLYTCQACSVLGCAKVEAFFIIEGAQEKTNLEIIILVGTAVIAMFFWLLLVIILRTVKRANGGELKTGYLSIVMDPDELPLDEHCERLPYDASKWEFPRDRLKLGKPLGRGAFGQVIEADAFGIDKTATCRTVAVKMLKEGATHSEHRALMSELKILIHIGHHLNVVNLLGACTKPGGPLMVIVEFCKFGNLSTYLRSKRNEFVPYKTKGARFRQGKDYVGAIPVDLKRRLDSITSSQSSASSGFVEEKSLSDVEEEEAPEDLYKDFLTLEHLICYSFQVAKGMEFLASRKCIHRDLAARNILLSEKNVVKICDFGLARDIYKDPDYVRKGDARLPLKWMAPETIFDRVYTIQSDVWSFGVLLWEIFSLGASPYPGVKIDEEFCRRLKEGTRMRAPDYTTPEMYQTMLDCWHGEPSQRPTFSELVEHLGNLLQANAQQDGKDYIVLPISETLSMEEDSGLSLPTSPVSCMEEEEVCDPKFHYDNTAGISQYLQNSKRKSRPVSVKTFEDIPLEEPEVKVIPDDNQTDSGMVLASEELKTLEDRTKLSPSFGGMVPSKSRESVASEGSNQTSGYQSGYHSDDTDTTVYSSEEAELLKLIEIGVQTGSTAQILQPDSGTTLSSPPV
Method: Human umbilical vein endothelial cells or HUVEC (Lonza #C2519A) were seeded at 2×10^4 cells/well onto 96-well plates (Corning #3904), in EGM-2 growth medium (Lonza #CC-3162) containing 1% Penicillin Streptomycin (Thermo Fisher #15140-122). HUVEC cells were incubated at 37° C., 5% CO2 for 24 h and then starved for 24 h in serum-free EBM-2 basal medium (Lonza #CC-3156) containing 1% Penicillin Streptomycin. Test compounds were serially diluted to produce an 8-point dose curve in fresh serum-free medium to a final concentration of 0.3% DMSO (vehicle) and added to the cells and incubated for 1 h. Cells were then stimulated with 100 ng/mL recombinant human VEGF165 (R&D Systems #293-VE-500) for 5 min, washed with cold PBS, and immediately lysed with 130 μL of cold 1× lysis buffer [20 mM Tris, 137 mM sodium chloride, 2 mM EDTA, 10% glycerol, 1% NP-40 alternative, 1 mM activated sodium orthovanadate, 1 mM PefaBloc SC (Sigma-Aldrich #11429868001), protease/phosphatase inhibitor tablet (Thermo Fisher #A32959)]. Lysates were collected and 100 μL/well added into the human phospho-KDR DuoSet IC ELISA (R&D Systems #DYC1766-2). Assay was performed according to manufacturer's instructions and sample phospho-KDR concentrations were extrapolated using human phospho-KDR control (R&D Systems #841421) as a standard. Positive control wells (100% activity) contained VEGF165-stimulated, DMSO-treated cell lysates. Negative control wells (0% activity) contained non-stimulated cell lysates. IC50 values were calculated by nonlinear regression analysis using a 4-parameter logistic curve fit in ActivityBase XE (IDBS).

AXL, sequence (P30530 26-894): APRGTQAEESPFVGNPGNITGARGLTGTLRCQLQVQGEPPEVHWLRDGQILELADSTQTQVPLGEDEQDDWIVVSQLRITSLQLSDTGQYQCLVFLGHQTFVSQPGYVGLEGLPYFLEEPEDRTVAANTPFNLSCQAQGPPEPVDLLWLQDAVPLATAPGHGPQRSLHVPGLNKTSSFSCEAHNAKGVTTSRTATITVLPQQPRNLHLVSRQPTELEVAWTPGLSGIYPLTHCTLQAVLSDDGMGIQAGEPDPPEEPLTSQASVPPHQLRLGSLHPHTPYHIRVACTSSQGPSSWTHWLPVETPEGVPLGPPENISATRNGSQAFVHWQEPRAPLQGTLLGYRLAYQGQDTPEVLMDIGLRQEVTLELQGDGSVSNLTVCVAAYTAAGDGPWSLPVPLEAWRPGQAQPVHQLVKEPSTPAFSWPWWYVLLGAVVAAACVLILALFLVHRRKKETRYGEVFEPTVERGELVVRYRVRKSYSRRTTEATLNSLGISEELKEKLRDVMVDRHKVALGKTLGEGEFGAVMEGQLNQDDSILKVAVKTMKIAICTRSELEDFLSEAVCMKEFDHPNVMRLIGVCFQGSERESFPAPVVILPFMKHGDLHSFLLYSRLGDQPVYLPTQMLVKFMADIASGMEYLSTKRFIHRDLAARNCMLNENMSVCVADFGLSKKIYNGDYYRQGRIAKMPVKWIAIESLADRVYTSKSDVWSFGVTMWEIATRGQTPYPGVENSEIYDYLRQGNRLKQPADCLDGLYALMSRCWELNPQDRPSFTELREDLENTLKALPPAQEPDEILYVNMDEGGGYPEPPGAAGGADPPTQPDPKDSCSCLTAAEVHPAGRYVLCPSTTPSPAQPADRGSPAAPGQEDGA

Row | SMILES | IC50 [1] [nM] | IC50 [2] [nM] | IC50 [3] [nM] | IC50 [4] [nM]
1 | CNC(=O)c1cc2c(Oc3ncc(NC(=O)C4(C(=O)Nc5ccc(F)cc5)CC4)cc3Cl)ccnc2cc1OC [Compound 19, 1-N′-[5-Chloro-6-[7-methoxy-6-(methylcarbamoyl)quinolin-4-yl]oxypyridin-3-yl]-1-N-(4-fluorophenyl)cyclopropane-1,1-dicarboxamide] | ≤ 10 | 10 to 100 | 10 to 100 | > 300
2 | CCNC(=O)c1cc2c(Oc3ncc(NC(=O)C4(C(=O)Nc5ccc(F)cc5)CC4)cc3Cl)ccnc2cc1OC [Compound 20, 1-N′-[5-Chloro-6-[6-(ethylcarbamoyl)-7-methoxyquinolin-4-yl]oxypyridin-3-yl]-1-N-(4-fluorophenyl)cyclopropane-1,1-dicarboxamide] | 10 to 100 | 10 to 100 | 10 to 100 | > 300
3 | COc1cc2nccc(Oc3ncc(NC(=O)C4(C(=O)Nc5ccc(F)cc5)CC4)cc3F)c2cc1C(N)=O [Compound 21, 1-N′-[6-(6-Carbamoyl-7-methoxyquinolin-4-yl)oxy-5-fluoropyridin-3-yl]-1-N-(4-fluorophenyl)cyclopropane-1,1-dicarboxamide] | ≤ 10 | 10 to 100 | 10 to 100 | > 300
4 | CNC(=O)c1cc2c(Oc3ncc(NC(=O)C4(C(=O)Nc5ccc(F)cc5)CC4)cc3F)ccnc2cc1OC [Compound 22, 1-N′-[5-Fluoro-6-[7-methoxy-6-(methylcarbamoyl)quinolin-4-yl]oxypyridin-3-yl]-1-N-(4-fluorophenyl)cyclopropane-1,1-dicarboxamide] | ≤ 10 | 10 to 100 | 10 to 100 | > 300
5 | COCCOc1cc2nccc(Oc3ccc(NC(=O)C4(C(=O)Nc5ccc(F)cc5)CC4)cn3)c2nc1OC [Compound 114, 1-N-(4-Fluorophenyl)-1-N′-[6-[[6-methoxy-7-(2-methoxyethoxy)-1,5-naphthyridin-4-yl]oxy]pyridin-3-yl]cyclopropane-1,1-dicarboxamide] | 100 to 300 | – | 100 to 300 | > 300
6 | COCCOc1cc2nccc(Oc3ncc(NC(=O)C4(C(=O)Nc5ccc(F)cc5)CC4)cc3Cl)c2nc1OC [Compound 115, 1-N′-[5-Chloro-6-[[6-methoxy-7-(2-methoxyethoxy)-1,5-naphthyridin-4-yl]oxy]pyridin-3-yl]-1-N-(4-fluorophenyl)cyclopropane-1,1-dicarboxamide] | 100 to 300 | – | 10 to 100 | > 300
7 | COc1nc2c(Oc3ncc(NC(=O)C4(C(=O)Nc5ccc(F)cc5)CC4)cc3F)ccnc2cc1O [Compound 121, 1-N′-[5-Fluoro-6-[(7-hydroxy-6-methoxy-1,5-naphthyridin-4-yl)oxy]pyridin-3-yl]-1-N-(4-fluorophenyl)cyclopropane-1,1-dicarboxamide] | > 300 | – | > 300 | > 300
8 | COCCOc1nc2c(Oc3ncc(NC(=O)C4(C(=O)Nc5ccc(F)cc5)CC4)cc3F)ccnc2cc1OC [Compound 134, 1-N′-[5-Fluoro-6-[[7-methoxy-6-(2-methoxyethoxy)-1,5-naphthyridin-4-yl]oxy]pyridin-3-yl]-1-N-(4-fluorophenyl)cyclopropane-1,1-dicarboxamide] | > 300 | – | > 300 | > 300

More lines, now with the values ahead:

Row | IC50 [1] [nM] | IC50 [2] [nM] | IC50 [3] [nM] | IC50 [4] [nM] | SMILES
9 | > 300 | – | > 300 | > 300 | COc1cc2nccc(Oc3ncc(NC(=O)C4(C(=O)Nc5ccc(F)cc5)CC4)cc3F)c2nc1OCCCN1CCOCC1 [Compound 135, 1-N′-[5-Fluoro-6-[[7-methoxy-6-(3-morpholin-4-ylpropoxy)-1,5-naphthyridin-4-yl]oxy]pyridin-3-yl]-1-N-(4-fluorophenyl)cyclopropane-1,1-dicarboxamide]
10 | 100 to 300 | – | > 300 | > 300 | COc1cc2ncnc(Oc3ccc(NC(=O)C4(C(=O)Nc5ccc(F)cc5)CC4)cn3)c2nc1OC [Compound 145, 1-N′-[6-(6,7-Dimethoxypyrido[3,2-d]pyrimidin-4-yl)oxypyridin-3-yl]-1-N-(4-fluorophenyl)cyclopropane-1,1-dicarboxamide]
11 | 10 to 100 | – | > 300 | > 300 | COCCOc1cc2ncnc(Oc3ccc(NC(=O)C4(C(=O)Nc5ccc(F)cc5)CC4)cn3)c2nc1OC [Compound 156, 1-N-(4-Fluorophenyl)-1-N′-[6-[6-methoxy-7-(2-methoxyethoxy)pyrido[3,2-d]pyrimidin-4-yl]oxypyridin-3-yl]cyclopropane-1,1-dicarboxamide]
12 | > 300 | – | > 300 | > 300 | COCCOc1cc2ncnc(Oc3ncc(NC(=O)C4(C(=O)Nc5ccc(F)cc5)CC4)cc3F)c2nc1OC [Compound 159, 1-N′-[5-Fluoro-6-[6-methoxy-7-(2-methoxyethoxy)pyrido[3,2-d]pyrimidin-4-yl]oxypyridin-3-yl]-1-N-(4-fluorophenyl)cyclopropane-1,1-dicarboxamide]
